Reference: PMC8619046, “ABCB1 and ABCG2 Control Brain Accumulation and Intestinal Disposition of the Novel ROS1/TRK/ALK Inhibitor Repotrectinib, While OATP1A/1B, ABCG2, and CYP3A Limit Its Oral Availability” (Pharmaceutics, 2021)
Where “and” joins values, the source holds several entries; their conditions need not be identical. Identical values can stand only once. Like-named read-outs stand apart in the source and are kept apart here.

Legend:
[1] = test system: T1, mouse Abcg2; test: Transepithelial transport, MDCK-II cells transduced with mAbcg2; type: in vitro ADME; conditions: MDCK-II mAbcg2, 5 µM, read-out: efflux transport ratio r
T1 construct: expressed in transfected cells; host or cells: MDCK-II cells stably transduced with mAbcg2 cDNA (made in the authors' institute)
Text: Polarized Madin-Darby Canine Kidney (MDCK-II) cells (ECACC 00062107) stably transduced with either human (h) ABCB1, hABCG2 or mouse (m) Abcg2 cDNA were generated in our institute between 1995–2005. The proper identity and functionality, such as highly characteristic growth and drug transporter properties, including inhibitor sensitivity, were regularly checked in these epithelial cells. Mycoplasma routinely tested negative in these cells. The passage number was 10–15 when used in the transport experiments.
Transepithelial transport experiments were performed as previously described with 12-well plates (Transwell 3414, Corning Inc., Kennebunk, ME, USA) containing microporous polycarbonate membrane filters (3.0 µm pore size, 12 mm diameter). […]
After pre-incubation with 5 µM zosuquidar (ABCB1 inhibitor) and/or 5 µM Ko143 (ABCG2/Abcg2 inhibitor) in both compartments (when appropriate) for 1 h, the transport phase was initiated (t = 0) by replacing the medium in apical and basolateral compartments with fresh DMEM with 10% FBS and the appropriate inhibitor(s), and repotrectinib at 5 µM in the donor compartment. […] The active transport ratio r, calculated by dividing the amount of apically directed drug transport by basolaterally directed drug translocation after 8 h, was used to assess active transport of repotrectinib.

[2] = 2-h oral plasma pharmacokinetics and tissue distribution, male wild-type and Oatp1a/1b−/− mice; type: in vivo; conditions: 10 mg/kg oral; for concentration at 2 h / Cmax / AUC(0-t) / Tmax / Kp at 2 h: mouse; for Cmax / AUC(0-t) / Tmax: plasma; for AUC(0-t): read-out: AUC0–2h; for Tmax: median (range); for Fold change (SIWC % of dose) / Fold change ratio (SIWC (%)-to-AUC0–2h) / Fold change ratio (SIWC (%)-to-plasma) / Fold change ratio (liver-to-plasma) / Fold increase CSIWC / Fold increase Cliver / Fold increase AUC0–2h: vs wild-type; for Kp at 2 h: male, po, read-out: Liver-to-plasma ratio
Text: Mice with similar average ages (and body weights) were randomly allocated in experimental groups as far as possible. Mice were maintained in a temperature-controlled and specific pathogen-free environment with a 12-h light and 12-h dark cycle and they received a standard diet (Transbreed, SDS Diets, Technilab-BMI, Someren, The Netherlands) and acidified water ad libitum. […] Given the objective main readout (repotrectinib plasma and tissue concentrations as measured by LC-MS/MS), no blinding method was applied.
Repotrectinib was dissolved in dimethyl sulfoxide (DMSO) at a concentration of 50 mg/mL. This stock solution was first diluted 3-fold with ethanol/polysorbate 80 (1/1; v/v), followed by further dilution with a 10 mM hydrochloric acid solution, yielding a dosing solution of 1 mg/mL, freshly prepared on the day of experiment. Final concentrations of the solvents in the administration solution were: 2%, 2%, 2%, and 94% (all v/v) for DMSO, ethanol, polysorbate 80, and 10 mM hydrochloric acid solution, respectively.
To minimize variation in absorption upon oral administration, mice were fasted for 2–3 h before repotrectinib (10 mg/kg body weight) was administered by gavage into the stomach at 10 µL/g body weight, with a blunt-ended needle. Tail vein serial blood samples were collected at 0.125, 0.25, 0.5, 1, 2 and 4 h using heparinized capillary tubes (Sarstedt, Nümbrecht, Germany) for the 8-h experiments. For the 4- and 2-h experiments, blood samplings were performed from the tail vein with the same schedule, but terminated at 2 and 1 h, respectively. Eight, four, or two hours after oral administration, mice were deeply anesthetized with 2–3% isoflurane, followed by cardiac puncture to collect blood in Eppendorf tubes containing heparin as an anticoagulant. Brain, liver, spleen, kidney, lung, small intestine, and testis were rapidly collected after sacrificing the mice by cervical dislocation. The small intestinal contents (SIC) were separated from small intestinal tissue (SI), which was flushed and rinsed with cold saline to remove any residual feces. Brain, liver, spleen, kidney, lung, SI, SIC, and testis were homogenized with 1, 3, 1, 2, 1, 3, 2, and 1 mL of 2% BSA (w/v), respectively. Plasma fraction was isolated from blood by centrifugation at 9000× g for 6 min at 4 °C. All samples were stored at −30 °C until analysis.
A sensitive and specific liquid chromatography-tandem mass spectrometry method using protein precipitation pre-treatment was adopted to quantify the concentration of repotrectinib in DMEM medium, plasma samples and tissue homogenates.
A non-compartmental model using the PKSolver add-in program for Microsoft Excel was adopted to calculate the pharmacokinetic parameters of repotrectinib. Oral availability was assessed by the plasma area under the curve (AUC), calculated using repotrectinib plasma concentration-time curves with the linear trapezoidal rule without extrapolating the infinity. Statistical testing was performed in Graphpad Prism7 (Graphpad Software, La Jolla, CA, USA). All data are presented as geometric means ± SD. Heteroscedastic data were log-transformed before applying statistical analysis. When differences between two groups were compared, the two-sided unpaired Student’s t test was used. One-way analysis of variance (ANOVA) was applied when multiple groups were compared, and the Bonferroni post hoc correction was used to accommodate multiple testing. Differences were considered statistically significant when P < 0.05.

[3] = test system: ROS1-positive advanced NSCLC; conditions: cited from earlier work; for confirmed objective response rate (ORR): preliminary TRIDENT-1 data
[4] = Oatp1a/1b−/− (>99% FVB background), male Oatp1a/1b−/− mice
[5] = male Oatp1a/1b−/− mice vs wild-type
[6] = wild-type (>99% FVB background), male wild-type mice

`C[C@H]1CNC(=O)c2cnn3ccc(nc23)N[C@H](C)c2cc(F)ccc2O1` [repotrectinib] showed an efflux ratio at 8 h, 5 µM ([1]; pH 7.4, with zosuquidar 5 µM + Ko143 5 µM, + zosuquidar 5 µM + Ko143 5 µM) of 1.1, an efflux ratio at 8 h, 5 µM ([1]; pH 7.4, with zosuquidar 5 µM, + zosuquidar 5 µM) of 40 and a concentration at 2 h ([2]; FVB, small intestine with content, male wild-type mice, read-out: CSIWC) of 84700 ± 24100 ng/g. It also gave a concentration at 2 h ([2]; Oatp1a/1b−/− (>99% FVB background), liver, male Oatp1a/1b−/− mice, read-out: Cliver) of 15300 ± 1600 ng/g, a Cmax [2, 4] of 5380 ± 520 ng/mL and an AUC(0-t) [2, 4] of 8960 ± 770 ng·h/mL. For the same compound, the Tmax [2, 4] was 30 min, the concentration at 2 h ([2]; Oatp1a/1b−/− (>99% FVB background), small intestine with content, male Oatp1a/1b−/− mice, read-out: CSIWC) was 121000 ± 29200 ng/g and the “liver-to-plasma ratio, fold reduction” value [2, 5] was 2.3 fold. The “relative intestinal (SIWC) recovery corrected for plasma concentration, fold decrease” value [2, 5] was 2.8 fold, the “relative intestinal (SIWC) recovery corrected for plasma exposure (AUC0–2h), fold decrease” value [2, 5] was 1.9 fold and the “SIWC (% of dose)” value ([2]; male Oatp1a/1b−/− mice) was 21.3 ± 3.7 % of dose. For the same compound, the “SIWC (%)-to-AUC0–2h ratio” value ([2]; male Oatp1a/1b−/− mice) was 2.40 ± 0.54 *** ·10^−3, the “SIWC (%)-to-plasma ratio” value ([2]; male Oatp1a/1b−/− mice) was 5.58 ± 1.09 *** ·10^−3 and the “Fold change (SIWC % of dose)” value ([2]; male Oatp1a/1b−/− mice) was 1.22. The “Fold change ratio (SIWC (%)-to-AUC0–2h)” value ([2]; male Oatp1a/1b−/− mice) was 0.52, the “Fold change ratio (SIWC (%)-to-plasma)” value ([2]; male Oatp1a/1b−/− mice) was 0.35 and the “Fold change ratio (liver-to-plasma)” value ([2]; male Oatp1a/1b−/− mice) was 0.44. The “Fold increase CSIWC” value ([2]; male Oatp1a/1b−/− mice) was 1.43, the “Fold increase Cliver” value ([2]; male Oatp1a/1b−/− mice) was 1.55 and the “Fold increase AUC0–2h” value ([2]; male Oatp1a/1b−/− mice, 10 mg/kg) was 2.3 and 2.29. For the same compound, the “SIWC (% of dose)” value ([2]; male wild-type mice) was 17.4 ± 5.6 % of dose, the “SIWC (%)-to-AUC0–2h ratio” value ([2]; male wild-type mice) was 4.59 ± 1.04 ·10^−3 and the “SIWC (%)-to-plasma ratio” value ([2]; male wild-type mice) was 15.8 ± 3.9 ·10^−3. The “Fold change (SIWC % of dose)” value ([2]; male wild-type mice) was 1.00, the “Fold change ratio (SIWC (%)-to-AUC0–2h)” value ([2]; male wild-type mice) was 1.00 and the “Fold change ratio (SIWC (%)-to-plasma)” value ([2]; male wild-type mice) was 1.00. For the same compound, the “Fold change ratio (liver-to-plasma)” value ([2]; male wild-type mice) was 1.00, the “Fold increase AUC0–2h” value ([2]; male wild-type mice) was 1.00 and the “Fold increase CSIWC” value ([2]; male wild-type mice) was 1.00. For the same compound, the “Fold increase Cliver” value ([2]; male wild-type mice) was 1.00, the Kp at 2 h ([2]; FVB, liver, 10 mg/kg, male Oatp1a/1b−/− mice) was 4 ± 0.54 and the Kp at 2 h ([2]; FVB, liver, 10 mg/kg, male wild-type mice) was 9.16 ± 1.53. The concentration at 2 h ([2]; wild-type (>99% FVB background), liver, male wild-type mice, read-out: Cliver) was 9840 ± 1160 ng/g, the Cmax [2, 6] was 2640 ± 990 ng/mL and the AUC(0-t) [2, 6] was 3920 ± 1290 ng·h/mL. The Tmax [2, 6] was 30 min, the “confirmed objective response rate (ORR)” value ([3]; TKI-naïve ROS1 + NSCLC patients) was 86% and the “confirmed objective response rate (ORR)” value ([3]; TKI-pretreated patients) was 50%. The “treatment-related adverse events, severity” value ([3]; majority of events, manageable) was “grade 1 or grade 2”, the “most common adverse effect” value ([3]; on-going phase I clinical trial (NCT03063116)) was “dizziness” and the “patients with prominent clinical activity” value ([3]; patients who had disease progression on prior TRK inhibitors) was 50%.
